Data published in ChEMBL document CHEMBL1201862, “PubChem BioAssay data set” (2004).
The source made the active and inactive calls.

Legend:
[1] = target: T1, Oxysterols receptor LXR-beta (Homo sapiens, UniProt P55055); assay: LXR agonists, Gal4 luciferase reporter, dose response, counter-screen for ssDAF-12 agonist project, cell-based, luminescence, HEK293, S. stercoralis campaign (AID 720737); assay type: functional; details: read-out: IC50 (the source's name)
T1 sequence (P55055 whole entry): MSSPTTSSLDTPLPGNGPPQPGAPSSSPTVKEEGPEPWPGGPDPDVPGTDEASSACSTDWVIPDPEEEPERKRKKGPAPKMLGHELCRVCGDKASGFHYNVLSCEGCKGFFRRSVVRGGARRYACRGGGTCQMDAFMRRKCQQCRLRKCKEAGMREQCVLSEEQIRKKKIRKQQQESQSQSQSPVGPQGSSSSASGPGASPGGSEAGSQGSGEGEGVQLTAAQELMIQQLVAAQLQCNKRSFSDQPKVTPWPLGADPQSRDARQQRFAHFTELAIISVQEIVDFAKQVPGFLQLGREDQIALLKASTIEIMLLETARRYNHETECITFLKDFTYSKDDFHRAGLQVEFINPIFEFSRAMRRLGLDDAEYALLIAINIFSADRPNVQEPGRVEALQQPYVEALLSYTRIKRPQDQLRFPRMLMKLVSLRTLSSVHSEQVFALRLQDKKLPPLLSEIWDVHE

[2] = Luminescence-based cell-based high throughput dose response assay to identify activators of the DAF-12 from the parasite S. stercoralis (ssDAF-12).; assay type: functional
[3] = target: T1, Oxysterols receptor LXR-beta; assay type: functional, cell-based
Transthyretin = Transthyretin (Homo sapiens, UniProt P02766); assay: Luminescence-based cell-based high throughput dose response assay to identify activators of Transthyretin (TTR) transcription.; assay type: functional
[4] = inhibitors of SNCA 5'UTR-driven reporter translation, confirmation, H4 neuroglioma cells, luminescence (AID 1988); assay type: functional, cell-based
cells = assay type: functional, cell-based
[5] = target: T2, Nuclear receptor subfamily 0 group B member 1 (Homo sapiens, UniProt P51843); assay type: functional, cell-based;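 also: HEK293T cells transfected with SF-1 and DAX-1 plus StAR promoter luciferase reporter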
T2 sequence (P51843 whole entry): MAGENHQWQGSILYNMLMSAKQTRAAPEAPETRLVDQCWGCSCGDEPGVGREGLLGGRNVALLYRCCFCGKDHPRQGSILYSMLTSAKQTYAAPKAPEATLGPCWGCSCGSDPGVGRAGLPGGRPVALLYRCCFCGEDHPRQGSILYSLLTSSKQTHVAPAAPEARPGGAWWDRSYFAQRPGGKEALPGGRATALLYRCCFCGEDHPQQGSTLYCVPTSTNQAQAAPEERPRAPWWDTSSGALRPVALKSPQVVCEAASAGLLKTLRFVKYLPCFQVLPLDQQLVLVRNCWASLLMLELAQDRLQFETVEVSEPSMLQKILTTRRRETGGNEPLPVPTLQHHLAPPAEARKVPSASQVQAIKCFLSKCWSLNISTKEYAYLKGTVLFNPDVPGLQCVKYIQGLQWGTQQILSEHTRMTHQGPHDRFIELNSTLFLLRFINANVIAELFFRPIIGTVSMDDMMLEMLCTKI

[6] = HepG2 cell cytotoxicity, dose response, cytotoxicity control, plate reader, cherry-pick, antagonist series (AID 743416); assay type: functional, cell-based
[7] = LGR2 antagonists, dose response, cell-based, HEK293, CRE-luciferase reporter, cherry pick, set 2 (AID 743343); assay type: functional;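 also: transfected cells were stimulated with diluted bursicon conditioned medium after compound addition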
[8] = inhibitors of firefly luciferase expression or activity, dose response, H4 neuroglioma cells, luminescence (AID 1990); assay type: functional, cell-based
[9] = MC4R antagonists, dose response, counter-screen for LGR2 antagonist project, cell-based, plate reader, cherry pick (AID 743444); assay type: functional;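 also: transfected HEK 293 cells stimulated with alpha-MSH peptide; potency of inhibitors of the alpha-MSH evoked signal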
[10] = Luminescence Cell-Based Dose Response HTS to Identify Inhibitors of 5'UTR Stem-Loop Driven Prion Protein mRNA Translation in H4 Neuroglioblastoma Cells. [Related pubchem assays: 1827 (Project Summary), 1813 (Primary HTS)]; assay type: functional
[11] = A549 cell cytotoxicity, dose response, cytotoxicity control, plate reader, cherry-pick, antagonist series (AID 743412); assay type: functional, cell-based
[12] = HEK293 cell cytotoxicity, dose response, cytotoxicity control, plate reader, cherry-picked samples (AID 743446); assay type: functional, cell-based
[13] = target: T3, Heat shock factor protein 1 (Mus musculus, UniProt P38532); assay: inhibition of MG132-induced HSE-luciferase signal, confirmation, cell-based, NIH3T3, luminescence, dose retest (AID 2382); assay type: functional;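 also: NIH3T3 fibroblasts with HSF1-driven luciferase reporter stressed by proteasome inhibitor MG132; luminescence from HSF1-driven luciferase expression after 8 hours of MG132 stress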
T3 sequence (P38532 whole entry): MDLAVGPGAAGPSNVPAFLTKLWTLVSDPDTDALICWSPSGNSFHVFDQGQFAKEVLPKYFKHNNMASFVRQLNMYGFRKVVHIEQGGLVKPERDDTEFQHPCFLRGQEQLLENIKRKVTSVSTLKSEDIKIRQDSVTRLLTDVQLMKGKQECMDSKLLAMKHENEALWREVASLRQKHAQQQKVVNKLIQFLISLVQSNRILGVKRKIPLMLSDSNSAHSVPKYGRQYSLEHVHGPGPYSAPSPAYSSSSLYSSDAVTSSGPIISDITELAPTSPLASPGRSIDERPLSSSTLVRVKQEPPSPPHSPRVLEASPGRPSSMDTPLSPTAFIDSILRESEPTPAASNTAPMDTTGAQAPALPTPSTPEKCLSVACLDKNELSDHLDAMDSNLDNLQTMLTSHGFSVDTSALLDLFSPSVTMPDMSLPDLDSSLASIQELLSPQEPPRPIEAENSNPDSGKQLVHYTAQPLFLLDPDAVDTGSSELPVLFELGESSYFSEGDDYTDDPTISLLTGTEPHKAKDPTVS

Vero = assay: host cell cytotoxicity of antiviral hits, dose response, cytotoxicity control for West Nile virus antiviral project, secondary assay (AID 1650); assay type: functional; details: Chlorocebus sabaeus
[14] = target: T3, Heat shock factor protein 1; assay: HSF1 potentiators in luciferase reporter cells, confirmation, cell-based, NIH3T3, luminescence, dose retest (AID 435004); assay type: functional;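 also: stress induced by proteasome inhibitor MG132 added 30 min after compound; luciferase reporter driven by HSF1 response element in NIH3T3 cells; actives raise luminescence as potentiators of the MG132 stress response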
[15] = target: Endoplasmic reticulum aminopeptidase 1 (Homo sapiens, UniProt Q9NZ08); assay: ERAP1 aminopeptidase inhibitors, dose response, biochemical, cherry-pick, set 2, plate reader (AID 743314)
[16] = target: Heat shock protein HSP 90-alpha (Homo sapiens, UniProt P07900); assay: Luminescence-based dose response biochemical high throughput screening assay for inhibitors of the Heat Shock Protein 90 (HSP90). [Related pubchem assays: 1831 (Summary AID.), 1846 (Confirmation screen.), 1789 (Primary screen.)]
[17] = cytotoxicity toward DRD oncogenic fibroblasts, dose response, cell-based, non-viral oncogenic, luminescence (AID 1934); assay type: functional; details: Homo sapiens
[18] = cytotoxicity toward NIH3T3 fibroblasts, dose response, counter-screen, cell-based, ATP luminescence, mouse fibroblasts (AID 2010); assay type: functional;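 also: cells exposed to compound for about 90 hours before reading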
BJ [19] = assay: cells; assay type: functional, cell-based; details: Homo sapiens
BJ [20] = assay: cytotoxicity toward BJ-TERT fibroblasts, dose response, cell-based, RAS-independent, luminescence (AID 1933); assay type: functional; details: Homo sapiens
[21] = inhibitors of PGC1a acetylation in cells, dose response, cell-based, cherry-picked samples (AID 720514); assay type: functional;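 also: potency may reflect raised or lowered acetylation signal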
[22] = inhibitors of intracellular T. cruzi replication, confirmation, NIH3T3 host cells, beta-gal luminescence (AID 2044); assay type: functional, cell-based;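 also: intracellular parasites grown in NIH/3T3 mouse fibroblasts as host cells; luminescent beta-galactosidase reporter signal from transgenic T. cruzi replicating inside host cells; inhibitors lower the luminescence signal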
Estrogen receptor beta = Estrogen receptor beta (Homo sapiens, UniProt Q92731);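 also: recombinant ER-beta bound to coactivator SRC1 peptide in presence of estradiol agonist; inhibitors block coactivator peptide binding and lower the FRET signal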
Sequence of Estrogen receptor beta (Q92731 whole entry): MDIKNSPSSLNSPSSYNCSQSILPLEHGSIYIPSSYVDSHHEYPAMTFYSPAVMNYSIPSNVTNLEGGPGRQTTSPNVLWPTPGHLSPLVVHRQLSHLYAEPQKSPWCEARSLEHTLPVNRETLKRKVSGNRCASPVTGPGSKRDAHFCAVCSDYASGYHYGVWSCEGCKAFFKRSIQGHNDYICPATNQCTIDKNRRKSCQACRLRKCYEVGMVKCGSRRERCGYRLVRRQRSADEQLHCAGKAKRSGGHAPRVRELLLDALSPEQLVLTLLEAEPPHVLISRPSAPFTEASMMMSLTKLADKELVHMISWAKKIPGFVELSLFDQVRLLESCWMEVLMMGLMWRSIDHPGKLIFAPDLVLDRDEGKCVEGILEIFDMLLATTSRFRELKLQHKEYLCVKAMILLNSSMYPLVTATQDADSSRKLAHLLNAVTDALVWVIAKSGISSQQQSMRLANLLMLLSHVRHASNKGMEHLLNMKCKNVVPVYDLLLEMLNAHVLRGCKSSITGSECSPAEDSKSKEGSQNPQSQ

Sequence of Endoplasmic reticulum aminopeptidase 1 (Q9NZ08 whole entry): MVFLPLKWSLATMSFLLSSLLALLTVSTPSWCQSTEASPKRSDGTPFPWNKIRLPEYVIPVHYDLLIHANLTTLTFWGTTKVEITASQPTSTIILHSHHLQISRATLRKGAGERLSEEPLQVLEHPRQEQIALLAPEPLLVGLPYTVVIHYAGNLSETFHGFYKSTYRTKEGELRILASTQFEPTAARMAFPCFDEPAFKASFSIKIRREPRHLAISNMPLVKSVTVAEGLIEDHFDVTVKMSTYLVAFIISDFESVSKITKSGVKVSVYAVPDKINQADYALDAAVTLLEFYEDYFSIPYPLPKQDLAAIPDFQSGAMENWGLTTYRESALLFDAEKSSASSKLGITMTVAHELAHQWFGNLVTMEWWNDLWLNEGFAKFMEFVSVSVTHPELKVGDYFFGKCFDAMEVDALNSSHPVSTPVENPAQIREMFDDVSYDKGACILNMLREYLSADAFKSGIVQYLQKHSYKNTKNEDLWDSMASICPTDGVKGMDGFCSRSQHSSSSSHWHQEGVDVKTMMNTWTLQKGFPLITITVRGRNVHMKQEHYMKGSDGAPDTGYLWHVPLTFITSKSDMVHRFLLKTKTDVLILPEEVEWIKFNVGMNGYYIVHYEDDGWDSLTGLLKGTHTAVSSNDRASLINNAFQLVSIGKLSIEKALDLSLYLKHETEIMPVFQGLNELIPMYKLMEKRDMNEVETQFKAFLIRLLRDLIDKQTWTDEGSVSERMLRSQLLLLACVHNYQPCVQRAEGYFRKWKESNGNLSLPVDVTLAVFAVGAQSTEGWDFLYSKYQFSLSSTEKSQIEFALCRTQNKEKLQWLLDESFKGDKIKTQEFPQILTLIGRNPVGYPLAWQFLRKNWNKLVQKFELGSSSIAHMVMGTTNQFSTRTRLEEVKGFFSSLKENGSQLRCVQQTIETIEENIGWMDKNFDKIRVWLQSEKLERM

For `Clc1ccc(-c2cn3cc(Cl)ccc3n2)cc1`, which EC50 [1] is on record?
Its EC50 is > 67.6 µM (inactive).

And the IC50 [2]?
The IC50 was > 67.6 µM (inactive).

And the EC50 [3]?
Its EC50 is > 67.6 µM (inactive).

Which EC50 (Transthyretin) does the source give for `Cn1cc(Br)c(C(=O)N2CCc3ccccc32)n1` here?
The EC50 was > 167 µM (inactive).

For `CC(=O)c1ccc(NC(=O)c2cnn3ccccc23)cc1`, which EC50 [4] is on record?
Its EC50 is 1.68 µM (active).

What about the IC50 (cells) of the same compound?
The IC50 was > 67.5 µM (inactive).

What about the IC50 [5] of the same compound?
Its IC50 is > 67.5 µM (inactive).

What about the AC50 [6] of the same compound?
Its AC50 is > 52 µM (inactive).

What about the AC50 [7] of the same compound?
Its AC50 is 9.16 µM (active).

And the EC50 [8]?
Its EC50 is 2.12 µM (active).

What about the AC50 [9] of the same compound?
The AC50 was 11.7 µM (active).

And the EC50 [10]?
Its EC50 is 1.43 µM (active).

What about the AC50 [11] of the same compound?
The AC50 was 50.1 µM (active).

And the AC50 [12]?
The AC50 was > 52 µM (inactive).

And the EC50 [13]?
The EC50 was 14.3 µM (active).

Which CC50 (Vero) does the source give for `CCOc1ccc(/C=C2\SC(=S)N(CCC(=O)N(CCO)c3ccccc3)C2=O)cc1` here?
Its CC50 is 33.5 µM (active).

Which results are given for `O=c1oc2cc(O)ccc2cc1S(=O)(=O)c1ccccc1`?
EC50 [14]: > 260 µM (inactive); AC50 [15]: 1.44 µM (active)

Which EC50 (Transthyretin) does the source give for `CN1C(=O)C(=Cc2[nH]c3ccccc3c2CCNC(=S)NC2CC2)C(=O)N(C)C1=O` here?
Its EC50 is > 167 µM (inactive).

Which IC50 [16] does the source give for `CCCc1ccc(OCc2ccc(C(=O)N3CCSCC3)o2)cc1` here?
The IC50 was 0.904 µM (active).

With `N#CC1=C(N)Oc2c(ccc3ccccc23)C1c1ccsc1` (stereo not drawn) as the compound, how does the EC50 [17] read?
The EC50 was 0.221 µM (active).

What about the EC50 [18] of the same compound?
The EC50 was 0.253 µM (active).

And the EC50 (BJ [19])?
Its EC50 is 0.254 µM (active).

And the EC50 (BJ [20])?
The EC50 was 0.182 µM (inconclusive).

And the AC50 [21]?
The AC50 was 17.7 µM (active).

What about the EC50 [22] of the same compound?
Its EC50 is 2.63 µM (active).

Which IC50 [16] does the source give for `O=C(CSc1ncccc1C(=O)O)c1ccc2ccccc2c1` here?
Its IC50 is 0.391 µM (active).

With `CCOc1ccccc1-c1nc(-c2cc3ccccc3nc2OC)no1` as the compound, how does the IC50 (Estrogen receptor beta) read?
The IC50 was > 50 µM (not active).
